Active and inactive are the calls of the source.
Legend:
[1] = target: DNA dC->dU-editing enzyme APOBEC-3A (Homo sapiens, UniProt P31941); test: A3A deaminase inhibition for selectivity – biochemical, dose response (AID 504722); assay type: functional
[2] = target: FAD-linked sulfhydryl oxidase ALR (Homo sapiens, UniProt P55789); test: ALR-catalysed DTT oxidation blockers – biochemical, H2O2 detection, luminescence, cherry-pick, dose response (AID 493248)
[3] = target: DNA dC->dU-editing enzyme APOBEC-3G (Homo sapiens, UniProt Q9HC16); test: Dose Response confirmation of small molecule APOBEC3G DNA Deaminase Inhibitors via a fluorescence-based single-stranded DNA deaminase assay. [Related pubchem assays (depositor defined):AID493012, AID493028]; assay type: functional
[4] = target: G-protein coupled receptor 55 (Homo sapiens, UniProt Q9Y2T6); test: inhibition of LPI-stimulated GPR55 beta-arrestin translocation – imaging, U2OS, beta-arrestin-GFP, LPI agonist, primary screen (AID 2013); assay type: functional;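 note: antagonist potency measured as reduced agonist-driven arrestin aggregation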
Melanocortin receptor 4 = Melanocortin receptor 4 (Homo sapiens, UniProt P32245); assay type: functional, cell-based;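 note: Cell-based assay with luminescence read-out, confirmatory dose-response testing for agonist activity of biased ligands at MC4R; human U2OS cells with tagged receptor and beta-arrestin; potency of agonists that increase receptor coupling to beta-arrestin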
[5] = microbe, parasite or virus in culture; assay type: functional; details: Mycobacterium tuberculosis
[6] = target: T1, Carboxy-terminal domain RNA polymerase II polypeptide A small phosphatase 1 (Homo sapiens, UniProt Q9GZU7); test: CTDSP1 inhibitors, concentration-response, biochemical, absorbance readout, ultra-high-throughput screen actives (AID 540297); assay type: functional
T1 sequence (Q9GZU7 whole entry): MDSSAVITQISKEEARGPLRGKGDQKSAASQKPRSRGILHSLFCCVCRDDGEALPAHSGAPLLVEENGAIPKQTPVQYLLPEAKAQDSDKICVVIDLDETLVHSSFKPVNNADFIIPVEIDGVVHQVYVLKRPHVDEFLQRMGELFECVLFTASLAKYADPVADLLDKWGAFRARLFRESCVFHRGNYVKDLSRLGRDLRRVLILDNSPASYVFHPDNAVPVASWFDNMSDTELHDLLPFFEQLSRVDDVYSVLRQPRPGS

Estrogen receptor beta [7] = target: T2, Estrogen receptor beta (Homo sapiens, UniProt Q92731);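 note: recombinant ER-beta bound to coactivator SRC1 peptide in presence of estradiol agonist; inhibitors block coactivator peptide binding and lower the FRET signal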
[8] = target: Eukaryotic translation initiation factor 4H (Homo sapiens, UniProt Q15056); test: inhibitors of translation initiation factor eIF4H – SAR follow-up (AID 435011); assay type: functional
[9] = target: Polyadenylate-binding protein 1 (Homo sapiens, UniProt P11940); test: PABP inhibition in translation initiation, SAR follow-up (AID 435018); assay type: functional
Estrogen receptor = target: T3, Estrogen receptor (Homo sapiens, UniProt P03372);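 note: potency for inhibiting coactivator peptide recruitment to the receptor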
T3 sequence (P03372 whole entry): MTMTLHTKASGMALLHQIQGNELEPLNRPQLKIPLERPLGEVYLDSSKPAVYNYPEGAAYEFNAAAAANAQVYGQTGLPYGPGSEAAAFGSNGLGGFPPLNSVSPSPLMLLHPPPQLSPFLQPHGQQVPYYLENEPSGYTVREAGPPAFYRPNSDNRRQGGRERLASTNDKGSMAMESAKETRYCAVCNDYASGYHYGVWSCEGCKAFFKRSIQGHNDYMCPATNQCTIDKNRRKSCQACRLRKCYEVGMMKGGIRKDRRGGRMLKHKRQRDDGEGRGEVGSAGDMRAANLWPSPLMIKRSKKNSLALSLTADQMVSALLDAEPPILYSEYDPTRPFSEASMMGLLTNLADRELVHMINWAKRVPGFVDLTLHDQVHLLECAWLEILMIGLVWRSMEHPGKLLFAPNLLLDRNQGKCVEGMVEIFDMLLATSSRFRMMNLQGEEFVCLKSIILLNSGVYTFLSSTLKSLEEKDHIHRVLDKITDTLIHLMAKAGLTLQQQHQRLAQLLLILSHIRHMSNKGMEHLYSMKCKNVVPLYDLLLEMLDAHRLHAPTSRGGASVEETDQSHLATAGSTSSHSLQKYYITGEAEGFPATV

[10] = target: DNA (cytosine-5)-methyltransferase 1 (Homo sapiens, UniProt P26358); test: inhibition of DNA methylation by DNMT1 – biochemical, fluorescent molecular beacon, confirmation (AID 602386); assay type: functional
Estrogen receptor beta [11] = target: T2, Estrogen receptor beta; test: blockers of SRC-3 recruitment to ERβ – biochemical, ELISA, streptavidin-HRP readout, orthogonal assay, confirmation (AID 1060)
[12] = target: Induced myeloid leukemia cell differentiation protein Mcl-1 (Homo sapiens, UniProt Q07820); assay type: functional
[13] = off-target signal loss in HeLa-CEM21 co-culture – HeLa F-luc CTL cells, cherry-picked, counter-screen for HIV-1 Env fusion inhibitor project, dose response (AID 652040); assay type: functional, cell-based;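 note: potency for signal decrease marking cytotoxic or nonspecific inhibition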
[14] = blockers of HIV-1 ZM109 envelope-driven cell-cell fusion – HeLa effector, CEM target cells, luciferase, cherry-pick, dose response (AID 652058); assay type: functional, cell-based;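 note: luciferase signal from HIV-1 Env mediated cell-cell fusion of effector and target cells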
[15] = blockers of HIV-1 envelope-mediated cell-cell fusion – cherry-pick, dose response (AID 652057); assay type: functional, cell-based
Genome polyprotein = Genome polyprotein (dengue virus type 2, UniProt P29990); test: flavivirus cap methylation enzyme inhibition – biochemical, confirmation dose response, primary screen (AID 588689); assay type: functional
Vero = test: viability of Vero cells under compound – cytotoxicity control for flavivirus capping enzyme inhibitors (AID 588742); assay type: functional; details: Chlorocebus sabaeus
[16] = target: T4, Lysine-specific demethylase 4C (Homo sapiens, UniProt Q9H3R0); test: inhibition of JMJD2C H3K9me3 demethylation – biochemical, DELFIA europium, cherry-picked samples, dose response (AID 488835); assay type: functional
T4 sequence (Q9H3R0 whole entry): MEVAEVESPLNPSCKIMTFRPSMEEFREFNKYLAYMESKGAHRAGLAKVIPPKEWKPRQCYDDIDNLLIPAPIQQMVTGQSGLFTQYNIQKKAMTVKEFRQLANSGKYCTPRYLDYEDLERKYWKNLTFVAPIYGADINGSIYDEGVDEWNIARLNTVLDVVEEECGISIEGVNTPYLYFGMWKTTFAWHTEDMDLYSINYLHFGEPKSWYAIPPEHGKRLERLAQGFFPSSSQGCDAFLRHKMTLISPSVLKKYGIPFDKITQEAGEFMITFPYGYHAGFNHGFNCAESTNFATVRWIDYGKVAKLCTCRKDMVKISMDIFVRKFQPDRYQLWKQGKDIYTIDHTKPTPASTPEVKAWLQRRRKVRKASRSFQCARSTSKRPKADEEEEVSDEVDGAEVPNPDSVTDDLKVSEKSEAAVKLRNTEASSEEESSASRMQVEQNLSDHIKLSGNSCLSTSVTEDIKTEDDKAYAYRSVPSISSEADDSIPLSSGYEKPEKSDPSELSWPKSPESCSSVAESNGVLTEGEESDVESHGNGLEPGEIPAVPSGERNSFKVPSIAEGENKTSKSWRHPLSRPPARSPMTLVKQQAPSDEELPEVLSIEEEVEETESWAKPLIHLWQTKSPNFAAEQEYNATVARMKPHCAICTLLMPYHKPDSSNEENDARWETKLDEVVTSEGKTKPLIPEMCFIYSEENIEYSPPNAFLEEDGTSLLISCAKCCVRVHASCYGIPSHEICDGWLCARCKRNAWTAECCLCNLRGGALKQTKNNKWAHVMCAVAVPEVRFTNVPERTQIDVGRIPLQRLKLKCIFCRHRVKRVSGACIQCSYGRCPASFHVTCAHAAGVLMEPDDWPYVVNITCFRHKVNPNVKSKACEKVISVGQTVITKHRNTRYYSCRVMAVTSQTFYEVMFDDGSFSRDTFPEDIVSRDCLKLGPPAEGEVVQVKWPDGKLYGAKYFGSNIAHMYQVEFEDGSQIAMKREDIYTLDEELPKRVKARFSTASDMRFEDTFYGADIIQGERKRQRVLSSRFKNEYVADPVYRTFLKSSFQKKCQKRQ

Beta-galactosidase = Beta-galactosidase (Escherichia coli, UniProt Q8VNN2); test: detection-enzyme interference by beta-gal modulators – biochemical, E. coli enzyme, set 3, artefact control for CCR6 antagonist project, dose response (AID 504712); assay type: functional
Hexokinase HKDC1 = target: T5, Hexokinase HKDC1 (Homo sapiens, UniProt Q2TB90); test: inhibition of HKDC1 glucose phosphorylation – biochemical, W721R variant, dose response (AID 504729); assay type: functional
T5 sequence (Q2TB90 whole entry): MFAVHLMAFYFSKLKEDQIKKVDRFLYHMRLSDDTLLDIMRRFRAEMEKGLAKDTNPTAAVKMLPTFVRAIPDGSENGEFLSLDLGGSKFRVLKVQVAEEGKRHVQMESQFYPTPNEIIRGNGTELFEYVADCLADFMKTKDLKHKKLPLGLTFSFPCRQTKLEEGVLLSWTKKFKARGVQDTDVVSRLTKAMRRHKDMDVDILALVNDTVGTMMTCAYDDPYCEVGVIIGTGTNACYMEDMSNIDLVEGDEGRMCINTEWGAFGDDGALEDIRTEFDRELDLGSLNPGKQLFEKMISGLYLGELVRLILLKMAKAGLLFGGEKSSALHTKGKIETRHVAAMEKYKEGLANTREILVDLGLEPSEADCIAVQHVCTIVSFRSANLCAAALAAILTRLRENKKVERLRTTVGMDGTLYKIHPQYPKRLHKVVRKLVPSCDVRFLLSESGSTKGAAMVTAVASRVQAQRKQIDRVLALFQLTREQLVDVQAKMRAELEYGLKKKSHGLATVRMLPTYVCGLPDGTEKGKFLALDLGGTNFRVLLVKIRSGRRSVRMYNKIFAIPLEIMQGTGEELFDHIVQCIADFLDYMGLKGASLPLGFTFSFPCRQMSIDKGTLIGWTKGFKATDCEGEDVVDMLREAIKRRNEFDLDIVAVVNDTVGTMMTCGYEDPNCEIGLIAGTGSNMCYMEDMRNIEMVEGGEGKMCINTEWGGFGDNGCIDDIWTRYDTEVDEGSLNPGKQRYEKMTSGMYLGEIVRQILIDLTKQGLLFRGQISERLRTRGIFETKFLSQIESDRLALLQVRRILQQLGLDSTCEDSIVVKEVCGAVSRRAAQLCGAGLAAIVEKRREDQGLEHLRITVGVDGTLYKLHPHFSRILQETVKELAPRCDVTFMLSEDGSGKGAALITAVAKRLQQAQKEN

[17] = target: T6, Mannose-6-phosphate isomerase (Homo sapiens, UniProt P34949); test: MPI enzyme activity inhibition – biochemical, fluorescence intensity, coupled assay, primary screen (AID 1209)
T6 sequence (P34949 whole entry): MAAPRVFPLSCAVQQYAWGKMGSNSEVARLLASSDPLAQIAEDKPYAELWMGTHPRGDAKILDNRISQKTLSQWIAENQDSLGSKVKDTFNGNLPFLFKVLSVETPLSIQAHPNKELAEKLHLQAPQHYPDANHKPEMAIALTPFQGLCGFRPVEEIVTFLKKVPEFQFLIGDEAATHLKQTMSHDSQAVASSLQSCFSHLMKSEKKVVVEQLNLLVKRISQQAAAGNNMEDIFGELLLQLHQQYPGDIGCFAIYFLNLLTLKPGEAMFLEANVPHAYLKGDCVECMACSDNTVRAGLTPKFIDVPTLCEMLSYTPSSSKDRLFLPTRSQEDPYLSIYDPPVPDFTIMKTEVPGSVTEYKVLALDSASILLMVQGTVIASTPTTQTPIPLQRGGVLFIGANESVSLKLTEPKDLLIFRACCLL

[18] = target: T6, Mannose-6-phosphate isomerase; test: MPI inhibition at elevated mannose 6-phosphate – biochemical, fluorescence intensity, high mannose 6-phosphate, primary screen (AID 1220)
Hexokinase = Hexokinase (Trypanosoma brucei, UniProt Q38C41); test: Confirmation assay for inhibitors of Trypanosoma brucei hexokinase 1-Analogue-first series. [Related pubchem assays (depositor defined):AID1430, AID1632, AID2516, AID2560, AID2579, AID2600, AID449725, AID492951]; assay type: functional
Sequence of Hexokinase (Q38C41 whole entry): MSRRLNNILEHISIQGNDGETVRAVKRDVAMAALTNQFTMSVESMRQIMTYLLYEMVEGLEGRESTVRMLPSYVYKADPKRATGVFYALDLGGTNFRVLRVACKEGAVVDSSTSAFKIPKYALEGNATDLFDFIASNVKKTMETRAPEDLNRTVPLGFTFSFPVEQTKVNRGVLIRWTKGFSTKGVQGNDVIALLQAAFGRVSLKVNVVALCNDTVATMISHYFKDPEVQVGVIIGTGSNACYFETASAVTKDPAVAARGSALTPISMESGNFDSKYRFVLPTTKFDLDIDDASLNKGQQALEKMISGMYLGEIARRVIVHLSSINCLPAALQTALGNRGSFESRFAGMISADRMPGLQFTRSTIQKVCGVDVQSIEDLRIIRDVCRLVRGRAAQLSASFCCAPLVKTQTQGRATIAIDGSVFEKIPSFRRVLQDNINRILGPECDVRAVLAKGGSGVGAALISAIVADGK

T2 sequence (Q92731 whole entry): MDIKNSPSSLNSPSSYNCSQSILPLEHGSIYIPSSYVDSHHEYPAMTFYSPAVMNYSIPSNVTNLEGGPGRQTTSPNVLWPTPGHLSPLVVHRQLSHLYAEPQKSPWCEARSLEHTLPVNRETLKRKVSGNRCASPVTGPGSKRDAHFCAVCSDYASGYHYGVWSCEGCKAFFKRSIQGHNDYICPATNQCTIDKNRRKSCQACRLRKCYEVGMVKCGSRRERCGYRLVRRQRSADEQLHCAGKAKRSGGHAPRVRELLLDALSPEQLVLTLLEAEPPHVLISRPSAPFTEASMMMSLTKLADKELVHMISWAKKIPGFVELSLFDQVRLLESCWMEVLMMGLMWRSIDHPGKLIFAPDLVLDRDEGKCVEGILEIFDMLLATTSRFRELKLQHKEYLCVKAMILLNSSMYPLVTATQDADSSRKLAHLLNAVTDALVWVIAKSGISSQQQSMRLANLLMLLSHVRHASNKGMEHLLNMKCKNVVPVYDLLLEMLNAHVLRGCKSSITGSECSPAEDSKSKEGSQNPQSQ
Sequence of G-protein coupled receptor 55 (Q9Y2T6 whole entry): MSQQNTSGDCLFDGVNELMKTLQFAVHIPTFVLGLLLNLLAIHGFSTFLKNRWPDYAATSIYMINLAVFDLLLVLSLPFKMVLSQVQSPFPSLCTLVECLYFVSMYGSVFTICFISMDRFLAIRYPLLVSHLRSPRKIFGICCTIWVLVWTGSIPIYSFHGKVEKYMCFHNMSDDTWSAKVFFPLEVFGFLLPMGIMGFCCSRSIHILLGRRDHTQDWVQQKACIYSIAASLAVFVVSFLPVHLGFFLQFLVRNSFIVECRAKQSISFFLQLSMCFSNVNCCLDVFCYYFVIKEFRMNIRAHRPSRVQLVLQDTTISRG
Sequence of DNA dC->dU-editing enzyme APOBEC-3A (P31941 whole entry): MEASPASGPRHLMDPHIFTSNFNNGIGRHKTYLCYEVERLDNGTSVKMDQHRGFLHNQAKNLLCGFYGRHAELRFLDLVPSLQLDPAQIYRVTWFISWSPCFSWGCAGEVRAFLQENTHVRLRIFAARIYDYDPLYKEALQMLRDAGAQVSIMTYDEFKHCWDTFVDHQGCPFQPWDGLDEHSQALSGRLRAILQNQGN
Sequence of Beta-galactosidase (Q8VNN2 whole entry): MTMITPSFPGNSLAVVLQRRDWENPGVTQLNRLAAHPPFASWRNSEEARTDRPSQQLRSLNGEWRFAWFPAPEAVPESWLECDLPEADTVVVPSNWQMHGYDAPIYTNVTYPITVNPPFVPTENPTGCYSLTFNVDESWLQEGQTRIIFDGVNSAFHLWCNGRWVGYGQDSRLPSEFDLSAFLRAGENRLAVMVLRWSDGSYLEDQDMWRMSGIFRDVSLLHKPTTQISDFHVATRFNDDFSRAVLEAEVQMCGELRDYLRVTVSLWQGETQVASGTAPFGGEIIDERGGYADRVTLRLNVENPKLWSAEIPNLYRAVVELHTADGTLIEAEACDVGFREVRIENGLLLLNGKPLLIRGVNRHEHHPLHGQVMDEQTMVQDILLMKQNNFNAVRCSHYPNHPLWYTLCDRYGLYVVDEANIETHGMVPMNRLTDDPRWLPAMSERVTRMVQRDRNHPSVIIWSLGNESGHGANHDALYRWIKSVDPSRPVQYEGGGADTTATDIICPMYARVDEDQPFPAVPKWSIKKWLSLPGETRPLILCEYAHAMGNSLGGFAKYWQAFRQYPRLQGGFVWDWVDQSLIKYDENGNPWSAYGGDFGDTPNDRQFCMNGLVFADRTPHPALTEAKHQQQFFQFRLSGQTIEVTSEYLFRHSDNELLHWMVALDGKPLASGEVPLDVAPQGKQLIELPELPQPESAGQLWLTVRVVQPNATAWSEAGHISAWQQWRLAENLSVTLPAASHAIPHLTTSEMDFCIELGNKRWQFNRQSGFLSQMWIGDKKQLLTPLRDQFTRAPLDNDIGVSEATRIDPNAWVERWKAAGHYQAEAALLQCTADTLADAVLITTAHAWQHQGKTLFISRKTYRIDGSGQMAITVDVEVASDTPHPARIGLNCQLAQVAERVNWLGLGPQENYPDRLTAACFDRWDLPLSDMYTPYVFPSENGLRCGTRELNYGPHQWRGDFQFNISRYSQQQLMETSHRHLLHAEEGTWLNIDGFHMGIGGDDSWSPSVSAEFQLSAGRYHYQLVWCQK
Sequence of Polyadenylate-binding protein 1 (P11940 whole entry): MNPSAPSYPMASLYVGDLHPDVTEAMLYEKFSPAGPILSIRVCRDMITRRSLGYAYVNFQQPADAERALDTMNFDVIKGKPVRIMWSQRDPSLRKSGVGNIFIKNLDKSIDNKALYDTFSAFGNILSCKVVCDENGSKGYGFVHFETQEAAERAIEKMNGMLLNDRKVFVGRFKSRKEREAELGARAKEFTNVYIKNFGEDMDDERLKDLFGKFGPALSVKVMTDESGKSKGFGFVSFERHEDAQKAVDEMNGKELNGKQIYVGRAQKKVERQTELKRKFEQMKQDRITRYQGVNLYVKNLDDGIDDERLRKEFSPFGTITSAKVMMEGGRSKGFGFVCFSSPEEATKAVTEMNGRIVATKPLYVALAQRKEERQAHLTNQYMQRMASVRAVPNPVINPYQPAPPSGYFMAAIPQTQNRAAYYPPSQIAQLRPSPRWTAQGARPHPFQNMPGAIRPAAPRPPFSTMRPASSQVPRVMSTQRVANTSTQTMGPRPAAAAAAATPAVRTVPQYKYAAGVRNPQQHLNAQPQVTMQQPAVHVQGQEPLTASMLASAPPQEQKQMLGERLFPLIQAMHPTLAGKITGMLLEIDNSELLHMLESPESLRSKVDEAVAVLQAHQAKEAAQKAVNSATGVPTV
Sequence of DNA dC->dU-editing enzyme APOBEC-3G (Q9HC16 whole entry): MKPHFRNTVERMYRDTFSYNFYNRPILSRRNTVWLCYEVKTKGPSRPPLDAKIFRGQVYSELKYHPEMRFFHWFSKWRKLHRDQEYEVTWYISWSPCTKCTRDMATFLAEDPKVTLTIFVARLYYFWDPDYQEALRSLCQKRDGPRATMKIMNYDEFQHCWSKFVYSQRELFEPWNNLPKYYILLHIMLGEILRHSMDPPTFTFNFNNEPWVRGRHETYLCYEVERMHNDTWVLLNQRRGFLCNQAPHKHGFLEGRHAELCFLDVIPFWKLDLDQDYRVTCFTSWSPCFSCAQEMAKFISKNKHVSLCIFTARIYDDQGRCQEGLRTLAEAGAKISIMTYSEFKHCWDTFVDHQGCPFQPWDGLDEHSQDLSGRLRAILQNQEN
Sequence of Induced myeloid leukemia cell differentiation protein Mcl-1 (Q07820 whole entry, the tested form may be a part): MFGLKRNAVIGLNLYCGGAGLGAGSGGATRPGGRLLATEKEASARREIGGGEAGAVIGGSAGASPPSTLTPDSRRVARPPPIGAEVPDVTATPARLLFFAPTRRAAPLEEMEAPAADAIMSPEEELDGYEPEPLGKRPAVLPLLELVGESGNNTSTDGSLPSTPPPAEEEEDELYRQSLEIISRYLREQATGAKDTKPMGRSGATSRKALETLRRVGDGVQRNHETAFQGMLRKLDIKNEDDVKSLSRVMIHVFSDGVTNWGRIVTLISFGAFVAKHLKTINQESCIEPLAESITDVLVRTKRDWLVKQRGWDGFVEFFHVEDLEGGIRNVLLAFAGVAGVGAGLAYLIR
Sequence of FAD-linked sulfhydryl oxidase ALR (P55789 whole entry): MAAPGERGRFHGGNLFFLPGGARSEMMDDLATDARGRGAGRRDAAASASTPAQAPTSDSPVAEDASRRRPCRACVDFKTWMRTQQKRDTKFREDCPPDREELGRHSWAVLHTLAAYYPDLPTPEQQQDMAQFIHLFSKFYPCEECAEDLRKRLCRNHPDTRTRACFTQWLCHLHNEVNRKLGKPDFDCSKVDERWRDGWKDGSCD
Sequence of Melanocortin receptor 4 (P32245 whole entry): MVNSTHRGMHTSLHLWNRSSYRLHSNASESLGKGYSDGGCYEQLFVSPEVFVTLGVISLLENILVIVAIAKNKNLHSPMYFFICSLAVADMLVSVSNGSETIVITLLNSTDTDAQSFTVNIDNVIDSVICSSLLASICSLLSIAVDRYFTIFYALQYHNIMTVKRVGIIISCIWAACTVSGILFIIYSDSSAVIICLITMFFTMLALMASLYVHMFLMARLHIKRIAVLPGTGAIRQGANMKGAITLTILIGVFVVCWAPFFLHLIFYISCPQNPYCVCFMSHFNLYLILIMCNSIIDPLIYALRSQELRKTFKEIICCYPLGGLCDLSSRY

Cn1c(CSc2nc3ccccc3s2)n[nH]c1=S
IC50 [1]: > 100 µM (inactive)
AC50 [2]: 1.82 µM (active)
IC50 [3]: 4.35 µM (active)

OC(CNCCc1ccc(C(F)(F)F)cc1)COC(c1ccccc1)c1ccccc1 (configuration not stated)
IC50 [4]: 2.65 µM (active)
EC50 (Melanocortin receptor 4): > 89.2 µM (inactive)
CC50 [5]: 24.5 µM (active)

COc1ccc(N2Cc3cccc(C(=O)N4CCN(C(=O)c5ccco5)CC4)c3C2=O)cc1
IC50 [6]: 4.24 µM (active)
IC50 (Estrogen receptor beta [7]): 5.99 µM (active)
IC50 [8]: 1.43 µM (active)
IC50 [9]: 10.2 µM (active)
IC50 (Estrogen receptor): 9.8 µM (active)
IC50 [10]: 9.04 µM (active)
IC50 (Estrogen receptor beta [11]): > 50 µM (not active)
IC50 [12]: 3.1 µM (active)

COc1ccc(CCN2C(=O)c3[nH]nc(-c4ccccc4O)c3C2c2cccc(O)c2)cc1OC (configuration not stated)
AC50 [13]: 17.6 µM (active)
IC50 [4]: 2.7 µM (active)
AC50 [14]: 8.34 µM (active)
AC50 [15]: 2.44 µM (active)

CCOC(=O)C1=C(Cc2ccc(F)cc2)C(=O)c2ccccc2C1=O
IC50 (Genome polyprotein): 86.4 µM (active)
CC50 (Vero): > 40 µM (active)
AC50 [16]: 13.4 µM (active)
IC50 (Beta-galactosidase): > 66.6 µM (inactive)
IC50 (Hexokinase HKDC1): 11.4 µM (active)

Nn1c(S)nnc1Cc1ccc(Br)cc1
IC50 [1]: > 100 µM (inactive)
IC50 [17]: > 50 µM (not active)
IC50 [18]: > 50 µM (not active)
IC50 [3]: 3.6 µM (active)

Cc1cccc(C(=O)Nc2cc(Cl)ccc2C(=O)O)c1
IC50 (Hexokinase): 22.3 µM (active)

O=C(Cn1sc2ccccc2c1=O)Nc1ccc(C(F)(F)F)cc1
IC50 (Hexokinase): > 25 µM (inactive)

COC(=O)c1[nH]c2ccccc2c1Sc1ccccc1
IC50 [8]: > 100 µM (inactive)
IC50 [9]: > 100 µM (inactive)

O=C(COc1ccc(Cl)cc1)N/N=C/c1cccc2cccnc12
IC50 (Beta-galactosidase): > 66.6 µM (inactive)

From ChEMBL document CHEMBL1201862, “PubChem BioAssay data set” (2004)
